Active and inactive are the calls of the source. The calls are words filed in the database; no cut-off is given here.
Columns and labels:
MDA-MB-231 [1] = assay: Antiproliferative activity against human MDA-MB-231 cells after 72 hrs by MTT assay; format: functional, cell-based; settings: MDA-MB-231, 72 h
DU-4475 [2] = assay: Potency index, ratio of oridonin IC50 to compound IC50 for antiproliferative activity against human DU4475 cells after 72 hrs by MTT assay; format: functional
MDA-MB-231 [3] = assay: Potency index, ratio of oridonin IC50 to compound IC50 for antiproliferative activity against human MDA-MB-231 cells after 72 hrs by MTT assay; format: functional
MDA-MB-468 [4] = assay: Potency index, ratio of oridonin IC50 to compound IC50 for antiproliferative activity against human MDA-MB-468 cells after 72 hrs by MTT assay; format: functional
MDA-MB-468 [5] = assay: Antiproliferative activity against human MDA-MB-468 cells after 72 hrs by MTT assay; format: functional, cell-based; settings: MDA-MB-468, 72 h
HCC1806 [6] = assay: Potency index, ratio of oridonin IC50 to compound IC50 for antiproliferative activity against human HCC1806 cells after 72 hrs by MTT assay; format: functional
HCC1806 [7] = assay: Antiproliferative activity against human HCC1806 cells after 72 hrs by MTT assay; format: functional, cell-based; settings: HCC1806, 72 h
DU-4475 [8] = assay: Antiproliferative activity against human DU4475 cells after 72 hrs by MTT assay; format: functional, cell-based; settings: DU-4475, 72 h
T47D = assay: Antiproliferative activity against human T47D cells after 72 hrs by MTT assay; format: functional, cell-based
NCI/ADR-RES = assay: Antiproliferative activity against human MCF7/ADR cells after 72 hrs by MTT assay; format: functional, cell-based
HCC1937 = assay: Antiproliferative activity against human HCC1937 cells after 72 hrs by MTT assay; format: functional, cell-based; settings: HCC1937, 72 h
SK-BR-3 = assay: Antiproliferative activity against human SK-BR-3 cells after 72 hrs by MTT assay; format: functional, cell-based; settings: SK-BR-3, 72 h
MDA-MB-453 = assay: Antiproliferative activity against human MDA-MB-453 cells after 72 hrs by MTT assay; format: functional, cell-based; settings: MDA-MB-453, 72 h
HCC1806 [9] = assay: Antitumor activity against human HCC1806 cells in ICR mouse assessed as increase in apoptosis in tumor at 6 mg/kg, iv administered once per 2 days for 23 consecutive days by TUNEL based immunohistochemical analysis; format: functional, organism-based
HCC1806 [10] = assay: Antitumor activity against human HCC1806 cells in ICR mouse assessed as tumor shrinkage at 6 mg/kg, iv administered once per 2 days for 23 consecutive days by hematoxylin and eosin staining based histopathological assay; format: functional, organism-based
HCC1806 [11] = assay: Antitumor activity against human HCC1806 cells in ICR mouse assessed as tumor shrinkage at 6 mg/kg, iv administered once per 2 days for 23 consecutive days by TUNEL based immunohistochemical analysis; format: functional, organism-based
HCC1806 [12] = assay: Antitumor activity against human HCC1806 cells in ICR mouse assessed as increase in apoptosis in tumor at 6 mg/kg, iv administered once per 2 days for 23 consecutive days by hematoxylin and eosin staining based histopathological assay; format: functional, organism-based
HCC1806 [13] = assay: Antitumor activity against human HCC1806 cells in ICR mouse assessed as reduction in tumor weight at 6 mg/kg, iv administered once per 2 days for 23 consecutive days and measured every 2 days relative to control; format: functional; parameters: scale not given: the % may be the effect or the level left
HCC1806 [14] = assay: Antitumor activity against human HCC1806 cells in ICR mouse assessed as increase in apoptosis in tumor at 6 mg/kg, iv administered once per 2 days for 23 consecutive days by Ki67 staining-based immunohistochemical analysis; format: functional, organism-based
[15] = Toxicity in ICR mouse assessed as reduction in body weight at 6 mg/kg, iv administered once per 2 days for 23 consecutive days and measured every 2 days; format: organism-based; settings: in vivo, 48 h
HCC1806 [16] = assay: Antitumor activity against human HCC1806 cells harboring luciferase gene xenografted in ICR mouse assessed as shrunken tumor tissue at 6 mg/kg, iv administered once per 2 days for 21 consecutive days and measured once every week; format: functional, organism-based
HCC1806 [17] = assay: Antitumor activity against human HCC1806 cells in ICR mouse assessed as tumor shrinkage at 6 mg/kg, iv administered once per 2 days for 23 consecutive days by Ki67 staining-based immunohistochemical analysis; format: functional, organism-based

Row | IC50 (MDA-MB-231 [1]) [nM] | IC50 (MDA-MB-468 [5]) [nM] | IC50 (HCC1806 [7]) [nM] | Compound | Ratio IC50 (DU-4475 [2]) | Ratio IC50 (MDA-MB-231 [3]) | Ratio IC50 (MDA-MB-468 [4]) | Ratio IC50 (HCC1806 [6]) | IC50 (DU-4475 [8]) [nM] | also measured
1 | 17900 | 17300 | 21700 | C=C1C(=O)[C@]23[C@H](O)[C@H]1CC[C@H]2[C@@]12CO[C@]3(O)[C@@H](O)[C@@H]1C(C)(C)CC[C@@H]2O [ORIDONIN] | – | – | – | – | 17000 | IC50 (T47D): 7560 nM; IC50 (NCI/ADR-RES): 26200 nM; IC50 (HCC1937): 8270 nM; IC50 (SK-BR-3): 8490 nM; IC50 (MDA-MB-453): 6670 nM
2 | 960 | 790 | 1000 | C=C1C(=O)[C@@]23C(=O)[C@@H]4OC[C@]5(C=CCC(C)(C)[C@@H]45)[C@@H]2CC[C@@H]1[C@H]3OC(C)=O | – | – | – | – | 750 | –
3 | 1350 | 1600 | 2090 | C=C1C(=O)[C@@]23C(=O)[C@@H]4OC[C@]5(C=CCC(C)(C)[C@@H]45)[C@@H]2CC[C@@H]1[C@H]3OC(=O)/C=C/c1ccnc(Cl)c1 | – | – | – | – | 1710 | –

The remaining lines, values behind:

Row | Compound | IC50 (MDA-MB-231 [1]) [nM] | IC50 (MDA-MB-468 [5]) [nM] | IC50 (HCC1806 [7]) [nM] | Ratio IC50 (DU-4475 [2]) | Ratio IC50 (MDA-MB-231 [3]) | Ratio IC50 (MDA-MB-468 [4]) | Ratio IC50 (HCC1806 [6]) | IC50 (DU-4475 [8]) [nM] | also measured
4 | C=C1C(=O)[C@]23[C@H](O)[C@H]1CC[C@H]2[C@]12C=CCC(C)(C)[C@H]1[C@H](O)[C@@]3(O)OC2 | 2330 | 1440 | 2350 | 6 - 12 | 6 - 12 | 6 - 12 | 6 - 12 | 1610 | –
5 | C=C1C(=O)[C@]23[C@H](O)[C@H]1CC[C@H]2[C@]12CCCC(C)(C)[C@H]1[C@H](O)[C@@]3(O)OC2 | 2960 | 2240 | 2390 | 6 - 12 | 6 - 12 | 6 - 12 | 6 - 12 | 2360 | –
6 | CC(=O)O[C@H]1C(=O)[C@@]2(C)[C@H]([C@H](OC(=O)c3ccccc3)[C@]3(O)C[C@H](OC(=O)[C@H](O)[C@@H](NC(=O)c4ccccc4)c4ccccc4)C(C)=C1C3(C)C)[C@]1(OC(C)=O)CO[C@@H]1C[C@@H]2O [PACLITAXEL] | – | – | – | – | – | – | – | – | Activity (HCC1806 [9]): Active; Activity (HCC1806 [10]): Active; Activity (HCC1806 [11]): Active; Activity (HCC1806 [12]): Active; Activity (HCC1806 [13]): 66%; Activity (HCC1806 [14]): Active; Activity [15]: Toxic; Activity (HCC1806 [16]): Active; Activity (HCC1806 [17]): Active

Source: ChEMBL document CHEMBL4627407, “Identification of a Potent Oridonin Analogue for Treatment of Triple-Negative Breast Cancer” (J Med Chem, 2020)
